Results on 24 molecules are retold here after patent US12071411B2, “Inhibitors of HIF-2α and methods of use thereof” (ARCUS BIOSCIENCES, INC., priority 2021, dated 2024).

The target in test [1] is T1, Biotin tagged HIF-2α protein containing PAS-B domain (240-350) (Homo sapiens, UniProt Q99814).
T1 construct: Biotin tagged HIF-2α protein containing PAS-B domain (240-350) was prepared and purified in-house; made in house
Description: HIF-2α Scintillation Proximity Assay (SPA) binding assay. To be noted: 50 nM HIF-2α protein, 25 nM 3H-tracer, 2% DMSO. On the procedure:
HIF-2α Scintillation Proximity Assay (SPA) Binding Assay:
Biotin tagged HIF-2α protein containing PAS-B domain (240-350) was prepared and purified in-house.
Compounds solubilized in DMSO were dispensed into a white 384-well polystyrene non-binding flat clear bottom plate (Greiner Bio-One, Cat #781903) using an HP D300 dispenser. Ten microliters of biotinylated HIF-2α protein in buffer (25 mM Tris-HCl, pH 7.4, 150 mM NaCl, 0.15% BSA and 0.001% Tween 20) was added to the compound wells and allowed to incubate for 1 hour at room temperature. Ten microliters of SPA bead mix were added to the wells and incubated for an additional 45 minutes, followed by 10 ul of ^3H-tracer solution. Final assay conditions comprised 50 nM HIF-2α protein, 25 nM radiolabeled tracer and 3 ug beads per well with compounds in 2% DMSO. The plate was read using a MicroBeta Microplate Counter (PerkinElmer) for luminescence detection. The IC50 values of the test compounds were determined from compound dose response curves fitted using a standard four parameter fit equation and are reported in Table 2.

Test [2] deals with T2, HIF-2α (Homo sapiens, UniProt Q99814). Description: HIF-2α Luciferase Reporter Assay (serum free) in HIF-Luc-786-0 cells. To be noted: Opti-MEM, 786-0 reporter cells, 20 hours incubation. It counts as cell-based. A digest of the protocol: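 786-0 cells stably transduced with HIF luciferase reporter, 20,000 cells/well in serum-free Opti-MEM, compounds (50 uM downward, 1% DMSO) 20 h at 37 °C. ONE-Glo luminescence normalized to DMSO and no-cell controls; IC50 from four-parameter fit.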
T2 sequence (Q99814 whole entry): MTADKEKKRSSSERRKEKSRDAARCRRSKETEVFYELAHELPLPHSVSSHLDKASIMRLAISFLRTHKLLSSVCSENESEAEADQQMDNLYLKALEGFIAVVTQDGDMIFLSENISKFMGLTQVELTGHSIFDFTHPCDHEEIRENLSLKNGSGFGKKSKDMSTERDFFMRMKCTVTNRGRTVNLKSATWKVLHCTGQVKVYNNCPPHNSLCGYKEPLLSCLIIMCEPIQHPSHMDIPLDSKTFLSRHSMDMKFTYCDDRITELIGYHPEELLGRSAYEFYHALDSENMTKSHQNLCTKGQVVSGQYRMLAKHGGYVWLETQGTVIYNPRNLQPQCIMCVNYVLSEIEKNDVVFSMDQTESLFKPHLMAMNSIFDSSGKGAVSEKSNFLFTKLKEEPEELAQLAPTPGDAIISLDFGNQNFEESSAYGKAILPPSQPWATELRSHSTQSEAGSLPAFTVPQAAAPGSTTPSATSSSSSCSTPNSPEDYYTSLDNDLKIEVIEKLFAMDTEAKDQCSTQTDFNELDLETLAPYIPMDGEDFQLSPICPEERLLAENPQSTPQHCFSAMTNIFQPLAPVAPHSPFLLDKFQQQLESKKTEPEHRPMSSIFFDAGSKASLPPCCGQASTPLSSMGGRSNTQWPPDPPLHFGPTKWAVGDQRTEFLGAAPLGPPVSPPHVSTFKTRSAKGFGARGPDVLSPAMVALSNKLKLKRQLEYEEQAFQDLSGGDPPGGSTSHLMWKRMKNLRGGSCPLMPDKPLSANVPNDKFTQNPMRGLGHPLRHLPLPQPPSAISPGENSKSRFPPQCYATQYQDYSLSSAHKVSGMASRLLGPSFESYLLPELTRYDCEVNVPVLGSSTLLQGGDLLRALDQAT
(In a reporter assay the amount or activity of a reporter protein is the signal.)

In test [3] the target is T2, HIF-2α. Put plainly: HIF-2α Luciferase Reporter Assay (serum), HRE-luciferase 786-0 cells in 100% human serum. The conditions noted are these: for IC50: 100% human serum, 786-0 reporter cells, overnight incubation, read-out: Serum Potency; for Serum Shift (approximate): ratio of IC50 in 100% serum to IC50 in serum free conditions. The format is cell-based. The method in brief:
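786-0 cells stably expressing an HRE-luciferase reporter were plated and rested 3 h. They were then treated overnight at 37 °C with compound diluted in 100% human serum. Serum was replaced with Opti-MEM, ONE-Glo luminescence was read, and IC50 came from a 4-parameter logistic fit.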

T1 sequence (Q99814 240-350): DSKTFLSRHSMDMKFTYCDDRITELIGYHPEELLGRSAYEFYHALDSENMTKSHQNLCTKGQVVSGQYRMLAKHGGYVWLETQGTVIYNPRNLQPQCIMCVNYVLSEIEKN

Regarding `O[C@H]1c2c(C(F)(F)F)nn(C3CCC(F)(F)CC3)c2CCC1(F)F` [Example 36, (4S)-1-(4,4-difluorocyclohexyl)-5,5-difluoro-3-(trifluoromethyl)-6,7-dihydro-4H-indazol-4-ol], the IC50 (in test [1]; against HIF-2α [2]) was 100 to 1000 nM in each case.
As to `CC(CCn1nc(C#N)c2c1CCC(F)(F)[C@H]2O)C(F)(F)F` (stereo partly drawn) [Example 49, (4S)-5,5-difluoro-4-hydroxy-1-(4,4,4-trifluoro-3-methylbutyl)-6,7-dihydro-4H-indazole-3-carbonitrile], the IC50 in test [1] is 100 to 1000 nM; at HIF-2α [2] it was 100 to 1000 nM; on HIF-2α [3], greater than 1000 nM. Moreover, the “Serum Shift (approximate)” value on HIF-2α [3] came to 7.
Regarding `CC(C)(C#N)CCn1nc(C(F)(F)F)c2c1CCC(F)(F)[C@H]2O` [Example 1, 4-[(4S)-5,5-Difluoro-4-hydroxy-3-(trifluoromethyl)-6,7-dihydro-4H-indazol-1-yl]-2,2-dimethylbutanenitrile], the IC50 is 100 to 1000 nM in test [1], greater than 1000 nM against HIF-2α [2] and greater than 1000 nM on HIF-2α [3]. Moreover, the “Serum Shift (approximate)” value at HIF-2α [3] was 2.
With `CCCCn1nc(C(F)(F)F)c2c1CCC(F)(F)[C@H]2O` [Example 39, (4S)-1-butyl-5,5-difluoro-3-(trifluoromethyl)-6,7-dihydro-4H-indazol-4-ol], the IC50 in test [1] is 100 to 1000 nM; at HIF-2α [2] it was 100 to 1000 nM; at HIF-2α [3], greater than 1000 nM. The “Serum Shift (approximate)” value at HIF-2α [3] is given as greater than 39.
`O=S1(=O)CC(Cn2nc(C(F)(F)F)c3c2CCC(F)(F)[C@H]3O)C1` [Example 46, (4S)-1-[(1,1-dioxothietan-3-yl)methyl]-5,5-difluoro-3-(trifluoromethyl)-6,7-dihydro-4H-indazol-4-ol]: the IC50 (in test [1]; against HIF-2α [2]; at HIF-2α [3]) was 100 to 1000 nM each time. At HIF-2α [3], the “Serum Shift (approximate)” value stood at 2.
With `CC(C#N)CCn1nc(C(F)(F)F)c2c1CCC(F)(F)[C@H]2O` (stereo partly drawn) [Example 3, 4-[(4S)-5,5-difluoro-4-hydroxy-3-(trifluoromethyl)-6,7-dihydro-4H-indazol-1-yl]-2-methylbutanenitrile], the IC50 (in test [1]; on HIF-2α [2]; on HIF-2α [3]) was 100 to 1000 nM in each case. Besides, the “Serum Shift (approximate)” value at HIF-2α [3] is 1.
For the molecule `O[C@H]1c2c(C(F)(F)F)nn(CCC3(C(F)(F)F)CC3)c2CCC1(F)F` [Example 5, (4S)-5,5-difluoro-3-(trifluoromethyl)-1-[2-[1-(trifluoromethyl)cyclopropyl]ethyl]-6,7-dihydro-4H-indazol-4-ol], the IC50 in test [1] was 100 to 1000 nM; against HIF-2α [2] it was 100 to 1000 nM; at HIF-2α [3] it was greater than 1000 nM. In addition, on HIF-2α [3], the “Serum Shift (approximate)” value is reported as 18.
For `O[C@H]1c2c(C(F)(F)F)nn(CC3CC3)c2CCC1(F)F` [Example 10, (4S)-1-(cyclopropylmethyl)-5,5-difluoro-3-(trifluoromethyl)-6,7-dihydro-4H-indazol-4-ol], the IC50 (in test [1]; on HIF-2α [2]) was greater than 1000 nM each time.
As for `CC(CCn1nc(S(C)(=O)=O)c2c1CCC(F)(F)[C@H]2O)C(F)(F)F` (stereo partly drawn) [Example 50, (4S)-5,5-difluoro-3-methylsulfonyl-1-(4,4,4-trifluoro-3-methylbutyl)-6,7-dihydro-4H-indazol-4-ol], the IC50 (in test [1]; against HIF-2α [2]) was greater than 1000 nM in each case.
As to `O[C@H]1c2c(C(F)(F)F)nn(CCC3CC3(F)F)c2CCC1(F)F` (stereo partly drawn) [Example 20, (4S)-1-[2-(2,2-difluorocyclopropyl)ethyl]-5,5-difluoro-3-(trifluoromethyl)-4,5,6,7-tetrahydro-1H-indazol-4-ol], the figures for the IC50 (in test [1]; at HIF-2α [2]; on HIF-2α [3]) were less than 100 nM, less than 100 nM and 100 to 1000 nM, respectively. For the same molecule, the “Serum Shift (approximate)” value at HIF-2α [3] worked out at 7.
Regarding `CC(F)(F)CCn1nc(C(F)(F)F)c2c1CCC(F)(F)[C@H]2O` [Example 32, (4S)-1-(3,3-difluorobutyl)-5,5-difluoro-3-(trifluoromethyl)-6,7-dihydro-4H-indazol-4-ol], the figures for the IC50 (in test [1]; at HIF-2α [2]; at HIF-2α [3]) were 100 to 1000 nM, less than 100 nM and 100 to 1000 nM, respectively. Also, the “Serum Shift (approximate)” value at HIF-2α [3] is reported as 10.
Take `CO[C@H]1c2c(C(F)(F)F)nn(CCCC(F)(F)F)c2CCC1(F)F` [Example 47, (4S)-5,5-difluoro-4-methoxy-1-(4,4,4-trifluorobutyl)-3-(trifluoromethyl)-6,7-dihydro-4H-indazole]: the IC50 (in test [1]; against HIF-2α [2]) was greater than 1000 nM throughout.
Take `O[C@H]1c2c(C(F)(F)F)nn(CCCC(F)(F)F)c2CCC1(F)F` [Example 41, (4S)-5,5-difluoro-1-(4,4,4-trifluorobutyl)-3-(trifluoromethyl)-6,7-dihydro-4H-indazol-4-ol]: the results for the IC50 (in test [1]; against HIF-2α [2]; on HIF-2α [3]) were less than 100 nM, less than 100 nM and 100 to 1000 nM, respectively. Further, on HIF-2α [3], the “Serum Shift (approximate)” value was determined as 12.
Turning to `O[C@H]1c2c(C(F)(F)F)nn(CCOC3CC3(F)F)c2CCC1(F)F` (stereo partly drawn) [Example 25, (4S)-1-[2-(2,2-difluorocyclopropoxy)ethyl]-5,5-difluoro-3-(trifluoromethyl)-4,5,6,7-tetrahydro-1H-indazol-4-ol], the IC50 (in test [1]; on HIF-2α [2]) was greater than 1000 nM throughout.
For `O[C@H]1c2c(C(F)(F)F)nn(CCC(F)(F)F)c2CCC1(F)F` [Example 33, (4S)-5,5-difluoro-3-(trifluoromethyl)-1-(3,3,3-trifluoropropyl)-6,7-dihydro-4H-indazol-4-ol], the IC50 in test [1] was 100 to 1000 nM; on HIF-2α [2], 100 to 1000 nM; on HIF-2α [3], greater than 1000 nM. The “Serum Shift (approximate)” value on HIF-2α [3] was 9.
As for `O[C@H]1c2c(C(F)(F)F)nn([C@H]3CC[C@H](C(F)(F)F)CC3)c2CCC1(F)F` [Example 37, (4S)-5,5-difluoro-3-(trifluoromethyl)-1-[4-(trifluoromethyl)cyclohexyl]-6,7-dihydro-4H-indazol-4-ol], the IC50 (in test [1]; on HIF-2α [2]) was greater than 1000 nM in each case.
Consider `CS(=O)(=O)CCn1nc(C(F)(F)F)c2c1CCC(F)(F)[C@H]2O` [Example 42, (4S)-5,5-difluoro-1-(2-methylsulfonylethyl)-3-(trifluoromethyl)-6,7-dihydro-4H-indazol-4-ol], for which the IC50 is 100 to 1000 nM in test [1], 100 to 1000 nM at HIF-2α [2] and greater than 1000 nM on HIF-2α [3]. Moreover, the “Serum Shift (approximate)” value at HIF-2α [3] worked out at 6.
For `O[C@H]1c2c(C(F)(F)F)nn(C[C@H]3C[C@H](F)C3)c2CCC1(F)F` [Example 45, (4S)-5,5-difluoro-1-[(3-fluorocyclobutyl)methyl]-3-(trifluoromethyl)-6,7-dihydro-4H-indazol-4-ol], the IC50 in test [1] was 100 to 1000 nM; against HIF-2α [2], greater than 1000 nM.
Take `O[C@H]1c2c(C(F)(F)F)nn(CC3CC3(F)F)c2CCC1(F)F` (single isomer, unassigned) [23/24 DIAST-1]: the IC50 in test [1] was 100 to 1000 nM; at HIF-2α [2], 100 to 1000 nM; on HIF-2α [3], greater than 1000 nM. In addition, the “Serum Shift (approximate)” value at HIF-2α [3] is given as 6.
Consider `O[C@H]1c2c(C(F)(F)F)nn(CCC3(F)COC3)c2CCC1(F)F` [Example 21, (4S)-5,5-difluoro-1-[2-(3-fluorooxetan-3-yl)ethyl]-3-(trifluoromethyl)-4,5,6,7-tetrahydro-1H-indazol-4-ol], for which the IC50 in test [1] is 100 to 1000 nM; against HIF-2α [2], 100 to 1000 nM; at HIF-2α [3] it was greater than 1000 nM. In addition, the “Serum Shift (approximate)” value on HIF-2α [3] worked out at 3.
Consider `COCCCn1nc(C(F)(F)F)c2c1CCC(F)(F)[C@H]2O` [Example 9, (4S)-5,5-difluoro-1-(3-methoxypropyl)-3-(trifluoromethyl)-6,7-dihydro-4H-indazol-4-ol], for which the IC50 (in test [1]; against HIF-2α [2]) was greater than 1000 nM throughout.
For `O[C@H]1c2c(C(F)(F)F)nn(CCCC(F)(F)F)c2[C@H](F)C1(F)F` (single isomer, unassigned) [Example 124], on HIF-2α [2], the IC50 was less than 100 nM. On HIF-2α [3], the IC50 is greater than 1000 nM and the “Serum Shift (approximate)” value worked out at 11.
For `CO[C@H]1C[C@@H](n2nc(C(F)(F)F)c3c2CC(F)(F)[C@H]3O)CCC1(F)F` (racemic) [Example 109, (4S)-1-[(1S,3S)-4,4-difluoro-3-methoxycyclohexyl]-5,5-difluoro-3-(trifluoromethyl)-1H,4H,5H,6H-cyclopenta[c]pyrazol-4-ol and (4S)-1-[(1R,3R)-4,4-difluoro-3-methoxycyclohexyl]-5,5-difluoro-3-(trifluoromethyl)-1H,4H,5H,6H-cyclopenta[c]pyrazol-4-ol], in that order: 100 to 1000 nM, 100 to 1000 nM and 4.
For `O[C@H]1c2c(C(F)(F)F)nn(CCCC(F)(F)F)c2[C@@H](F)C1(F)F` (single isomer, unassigned) [Example 123], in that order: 100 to 1000 nM, greater than 1000 nM and 12.
